Experimental data reported in PubChem BioAssay (NCI).
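Briefly, cells in 96-well plates were exposed to five compound concentrations for 48 h, and endpoints were estimated by linear interpolation. The concentration for full growth arrest is given as TGI.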

Key:
Test in all cases: NCI tumour cell line growth inhibition, 48 h
786-0 renal = system: 786-0 renal
ACHN renal = system: ACHN renal
CAKI-1 renal = system: CAKI-1 renal
CCRF-CEM leukemia = system: CCRF-CEM leukemia
COLO 205 colon = system: COLO 205 colon
HCC-2998 colon = system: HCC-2998 colon
HOP-92 NSCLC = system: HOP-92 NSCLC
K-562 leukemia = system: K-562 leukemia
NCI-H460 lung = system: NCI-H460 lung
NCI-H522 lung = system: NCI-H522 lung
OVCAR-8 ovarian = system: OVCAR-8 ovarian
SF-539 CNS = system: SF-539 CNS
SK-MEL-5 melanoma = system: SK-MEL-5 melanoma
SNB-75 CNS = system: SNB-75 CNS
TK-10 renal = system: TK-10 renal
DU-145 prostate = system: DU-145 prostate
MDA-MB-231 breast = system: MDA-MB-231 breast
HS 578T breast = system: HS 578T breast
T-47D breast = system: T-47D breast

SMILES | TGI (786-0 renal) [µM] | TGI (ACHN renal) [µM] | TGI (CAKI-1 renal) [µM] | TGI (CCRF-CEM leukemia) [µM] | TGI (COLO 205 colon) [µM] | TGI (HCC-2998 colon) [µM] | TGI (HOP-92 NSCLC) [µM] | TGI (K-562 leukemia) [µM] | TGI (NCI-H460 lung) [µM] | TGI (NCI-H522 lung) [µM] | TGI (OVCAR-8 ovarian) [µM] | TGI (SF-539 CNS) [µM] | TGI (SK-MEL-5 melanoma) [µM] | TGI (SNB-75 CNS) [µM] | TGI (TK-10 renal) [µM] | TGI (DU-145 prostate) [µM] | TGI (MDA-MB-231 breast) [µM] | TGI (HS 578T breast) [µM] | TGI (T-47D breast) [µM]
Cc1ccc(/C(O)=C/c2nc3c(nc2NC24CC5CC(CC(C5)C2)C4)c(=O)oc2ccccc23)cc1 | > 100 | > 100 | > 100 | > 100 | > 100 | > 100 | > 100 | > 100 | > 100 | > 100 | > 100 | > 100 | > 100 | 70.1 | > 100 |  |  |  | 
Nn1c(CCCCCCCCc2nnc(COc3ccc4ccccc4c3O)n2N)nnc1COc1ccc2ccccc2c1O | > 100 | > 100 | 41.8 |  | 35.1 | 67.7 | 60 | > 100 | > 100 | 42 |  |  | 37.5 | > 100 | > 100 | > 100 | 76.9 |  | 
COc1cccc(/C=C2\CCCc3ccccc3C2=O)c1 | 27.4 | > 100 | > 100 | 35.3 | 35.6 |  | 43.2 | 48.2 | 34.2 | 40.3 | 51.5 | 32 |  | > 100 | 82.6 | 60 | 32.5 | 41.4 | 
CCOC(=O)N1c2c(ccn2C)-c2ccn(C)c2N1C(=O)OCC | 23.1 | 29.6 | 44.8 | 13.8 | 57.1 | 37.9 | 63.7 | 42.4 | 49.3 | 25 | 27.9 | 38.2 | > 100 | 33.7 |  |  |  |  | 
COc1ccc2cc3[nH]c(=O)cc(O)c3cc2c1OC | > 100 | > 100 | > 100 | > 100 |  | > 100 | > 100 | > 100 | > 100 |  | > 100 | > 100 |  | > 100 | > 100 |  |  |  | 
CC(=O)OC[C@]1(C)CCCC2(C)C1CCC1C=C(C)[C@H]3CCC12C3 (some centres undefined) | > 100 | > 100 | > 100 | > 100 | > 100 | > 100 |  | > 100 | > 100 | 75 | > 100 | 66.8 | > 100 | 93.2 | > 100 |  |  |  | 
CC(=O)[C@@H]1C/C(=C\OCc2ccccc2)O[C@H]1C | > 100 | > 100 | > 100 |  | > 100 |  | > 100 | > 100 | > 100 | > 100 | > 100 | > 100 | > 100 | > 100 | > 100 | > 100 | > 100 |  | > 100
Cc1nc(C(N)=S)sc1C(=O)CC(=O)C(=O)Nc1ccccc1[N+](=O)[O-] | > 100 | > 100 | > 100 | > 100 |  | > 100 | > 100 | > 100 | > 100 | > 100 | > 100 | > 100 | > 100 | > 100 | > 100 |  |  |  | 
N#CC(C#N)=C/C=C(\Sc1c(Cl)c(Cl)nc(Cl)c1Cl)c1ccc(Cl)cc1 | 27.5 | 37.8 | 34.2 | > 100 | 55.4 |  | > 100 | > 100 | > 100 | 56.5 | > 100 | 41.8 | 27.7 | 44.9 | 41.2 | 47.5 | 60 | 63.7 | > 100
C/C=C1\C=C(OC)CN(CCc2c[nH]c3ccccc23)C1 | > 100 | > 100 |  | > 100 | > 100 | 33.1 |  | > 100 | > 100 | > 100 | > 100 | > 100 | 53.3 | > 100 | > 100 |  |  |  | 
N#Cc1c(=O)c2ccccc2n2c1[nH]c1ccccc12 | > 100 | > 100 | > 100 | 79.6 | > 100 | > 100 |  | > 100 | > 100 |  | > 100 | > 100 |  | > 100 | > 100 | > 100 | > 100 | > 100 | 79.7
Oc1c(Cl)c(Cl)c(O)c(CCNc2ccc3ncccc3c2)c1Cl | 34.3 | 28 | 25.4 |  | 89.2 | 28 | > 100 | > 100 | 41.8 | 4.29 | 50.6 | 39.4 | 5.52 | 33.4 | 36.7 | 60 |  | 13.1 | > 100
O=C1Cc2c([nH]c3ccccc23)-c2ccccc2N1 | > 100 | > 100 | > 100 | > 100 | 45.9 | 41.2 | > 100 | > 100 | > 100 | 62.6 | > 100 | 55.2 | > 100 | > 100 | > 100 |  |  |  | 
